Assay results from ChEMBL document CHEMBL3784933, “Synthesis and antitumor evaluation of trimethoxyanilides based on 4(3H)-quinazolinone scaffolds” (2016).

Legend:
Assay type in all cases: functional
[1] = Cytotoxicity against human OVCAR3 cells assessed as growth inhibition at 10 uM after 48 hrs by SRB assay; details: OVCAR-3, 48 h, read-out: GI
[2] = Cytotoxicity against human SF268 cells assessed as growth inhibition at 10 uM after 48 hrs by SRB assay; details: SF-268, 48 h, read-out: GI
[3] = Cytotoxicity against human UO31 cells assessed as growth inhibition at 10 uM after 48 hrs by SRB assay; details: UO-31, 48 h, read-out: GI
[4] = Cytotoxicity against human SNB19 cells assessed as growth inhibition at 10 uM after 48 hrs by SRB assay; details: SNB-19, 48 h, read-out: GI
SK-MEL-2 = assay: Cytotoxicity against human SK-MEL-2 cells assessed as growth inhibition at 10 uM after 48 hrs by SRB assay; details: SK-MEL-2, 48 h, read-out: GI
NCI-H522 = assay: Cytotoxicity against human NCI-H522 cells assessed as growth inhibition at 10 uM after 48 hrs by SRB assay; details: NCI-H522, 48 h, read-out: GI
[5] = Cytotoxicity against human UACC257 cells assessed as growth inhibition at 10 uM after 48 hrs by SRB assay; details: UACC-257, 48 h, read-out: GI
M14 = assay: Cytotoxicity against human M14 cells assessed as growth inhibition at 10 uM after 48 hrs by SRB assay; details: M14, 48 h, read-out: GI
Malme-3M = assay: Cytotoxicity against human MALME-3M cells assessed as growth inhibition at 10 uM after 48 hrs by SRB assay; details: read-out: GI
[6] = Cytotoxicity against human HOP92 cells assessed as growth inhibition at 10 uM after 48 hrs by SRB assay; details: HOP-92, 48 h, read-out: GI
[7] = Cytotoxicity against human OVCAR8 cells assessed as growth inhibition at 10 uM after 48 hrs by SRB assay; details: OVCAR-8, 48 h, read-out: GI
SN12C = assay: Cytotoxicity against human SN12C cells assessed as growth inhibition at 10 uM after 48 hrs by SRB assay; details: read-out: GI
[8] = Cytotoxicity against human BT549 cells assessed as growth inhibition at 10 uM after 48 hrs by SRB assay; details: BT-549, 48 h, read-out: GI
[9] = Cytotoxicity against human UACC62 cells assessed as growth inhibition at 10 uM after 48 hrs by SRB assay; details: UACC-62, 48 h, read-out: GI
[10] = Cytotoxicity against human NCI-ADR-RES cells assessed as growth inhibition at 10 uM after 48 hrs by SRB assay; details: read-out: GI
[11] = Cytotoxicity against human PC3 cells assessed as growth inhibition at 10 uM after 48 hrs by SRB assay; details: PC-3, 48 h, read-out: GI
[12] = Cytotoxicity against human SF295 cells assessed as growth inhibition at 10 uM after 48 hrs by SRB assay; details: SF-295, 48 h, read-out: GI
[13] = Cytotoxicity against human Hs 578T cells assessed as growth inhibition at 10 uM after 48 hrs by SRB assay; details: read-out: GI
MDA-MB-231 = assay: Cytotoxicity against human MDA-MB-231 cells assessed as growth inhibition at 10 uM after 48 hrs by SRB assay; details: MDA-MB-231, 48 h, read-out: GI
T47D = assay: Cytotoxicity against human T47D cells assessed as growth inhibition at 10 uM after 48 hrs by SRB assay; details: read-out: GI
[14] = Cytotoxicity against human SNB75 cells assessed as growth inhibition at 10 uM after 48 hrs by SRB assay; details: SNB-75, 48 h, read-out: GI
A498 = assay: Cytotoxicity against human A498 cells assessed as growth inhibition at 10 uM after 48 hrs by SRB assay; details: A498, 48 h, read-out: GI
CCRF-CEM = assay: Cytotoxicity against human CCRF-CEM cells assessed as growth inhibition at 10 uM after 48 hrs by SRB assay; details: read-out: GI
U-251 = assay: Cytotoxicity against human U251 cells assessed as growth inhibition at 10 uM after 48 hrs by SRB assay; details: U-251, 48 h, read-out: GI
A549 = assay: Cytotoxicity against human A549 cells assessed as growth inhibition at 10 uM after 48 hrs by SRB assay; details: A549, 48 h, read-out: GI
[15] = Cytotoxicity against human SF539 cells assessed as growth inhibition at 10 uM after 48 hrs by SRB assay; details: SF-539, 48 h, read-out: GI
[16] = Cytotoxicity against human SKOV3 cells assessed as growth inhibition at 10 uM after 48 hrs by SRB assay; details: SK-OV-3, 48 h, read-out: GI
SK-MEL-5 = assay: Cytotoxicity against human SK-MEL-5 cells assessed as growth inhibition at 10 uM after 48 hrs by SRB assay; details: SK-MEL-5, 48 h, read-out: GI
[17] = Cytotoxicity against human Caki1 cells assessed as growth inhibition at 10 uM after 48 hrs by SRB assay; details: CAKI-1, 48 h, read-out: GI
MCF7 = assay: Cytotoxicity against human MCF7 cells assessed as growth inhibition at 10 uM after 48 hrs by SRB assay; details: MCF7, 48 h, read-out: GI
SR = assay: Cytotoxicity against human SR cells assessed as growth inhibition at 10 uM after 48 hrs by SRB assay; details: read-out: GI
[18] = Cytotoxicity against human HCT116 cells assessed as growth inhibition at 10 uM after 48 hrs by SRB assay; details: HCT-116, 48 h, read-out: GI
786-0 = assay: Cytotoxicity against human 786-0 cells assessed as growth inhibition at 10 uM after 48 hrs by SRB assay; details: 786-0, 48 h, read-out: GI
[19] = Cytotoxicity against human NCI-H322 cells assessed as growth inhibition at 10 uM after 48 hrs by SRB assay; details: NCI-H322, 48 h, read-out: GI
[20] = Cytotoxicity against human RPMI8226 cells assessed as growth inhibition at 10 uM after 48 hrs by SRB assay; details: RPMI-8226, 48 h, read-out: GI
[21] = Cytotoxicity against human MOLT4 cells assessed as growth inhibition at 10 uM after 48 hrs by SRB assay; details: MOLT-4, 48 h, read-out: GI
ACHN = assay: Cytotoxicity against human ACHN cells assessed as growth inhibition at 10 uM after 48 hrs by SRB assay; details: read-out: GI
MDA-MB-468 = assay: Cytotoxicity against human MDA-MB-468 cells assessed as growth inhibition at 10 uM after 48 hrs by SRB assay; details: MDA-MB-468, 48 h, read-out: GI
[22] = Cytotoxicity against human RXF393 cells assessed as growth inhibition at 10 uM after 48 hrs by SRB assay; details: RXF 393, 48 h, read-out: GI
NCI-H226 = assay: Cytotoxicity against human NCI-H226 cells assessed as growth inhibition at 10 uM after 48 hrs by SRB assay; details: NCI-H226, 48 h, read-out: GI
[23] = Cytotoxicity against human LOXIMVI cells assessed as growth inhibition at 10 uM after 48 hrs by SRB assay; details: LOX IMVI, read-out: GI
[24] = Cytotoxicity against human HCT15 cells assessed as growth inhibition at 10 uM after 48 hrs by SRB assay; details: HCT-15, 48 h, read-out: GI
K562 = assay: Cytotoxicity against human K562 cells assessed as growth inhibition at 10 uM after 48 hrs by SRB assay; details: K562, 48 h, read-out: GI

## COc1cc2nc(SCC(=O)Nc3cc(OC)c(OC)c(OC)c3)n(-c3ccccc3)c(=O)c2cc1OC
[1]
  inhibition of growth at 10 µM: 12%
[2]
  inhibition of growth at 10 µM: 19%
[3]
  inhibition of growth at 10 µM: 34%
[4]
  inhibition of growth at 10 µM: 17%
SK-MEL-2
  inhibition of growth at 10 µM: 22%
NCI-H522
  inhibition of growth at 10 µM: 52%
[5]
  inhibition of growth at 10 µM: 26%
M14
  inhibition of growth at 10 µM: 15%
Malme-3M
  inhibition of growth at 10 µM: 20%
[6]
  inhibition of growth at 10 µM: 32%
[7]
  inhibition of growth at 10 µM: 40%
SN12C
  inhibition of growth at 10 µM: 11%
[8]
  inhibition of growth at 10 µM: 13%
[9]
  inhibition of growth at 10 µM: 19%
[10]
  inhibition of growth at 10 µM: 10%
[11]
  inhibition of growth at 10 µM: 17%
[12]
  inhibition of growth at 10 µM: 11%
[13]
  inhibition of growth at 10 µM: 34%
MDA-MB-231
  inhibition of growth at 10 µM: 16%
T47D
  inhibition of growth at 10 µM: 15%
[14]
  inhibition of growth at 10 µM: 20%
A498
  inhibition of growth at 10 µM: 28%
CCRF-CEM
  inhibition of growth at 10 µM: 18%
U-251
  inhibition of growth at 10 µM: 30%
A549
  inhibition of growth at 10 µM: 14%
[15]
  inhibition of growth at 10 µM: 17%
[16]
  inhibition of growth at 10 µM: 12%
SK-MEL-5
  inhibition of growth at 10 µM: 10%

## COc1cc(NC(=O)CCSc2nc3ccc(Cl)cc3c(=O)n2-c2ccc(F)cc2)cc(OC)c1OC
[2]
  inhibition of growth at 10 µM: 19%
[17]
  inhibition of growth at 10 µM: 34%
[3]
  inhibition of growth at 10 µM: 51%
[4]
  inhibition of growth at 10 µM: 15%
NCI-H522
  inhibition of growth at 10 µM: 55%
[5]
  inhibition of growth at 10 µM: 25%
MCF7
  inhibition of growth at 10 µM: 21%
SR
  inhibition of growth at 10 µM: 23%
[18]
  inhibition of growth at 10 µM: 13%
786-0
  inhibition of growth at 10 µM: 19%
[19]
  inhibition of growth at 10 µM: 16%
[20]
  inhibition of growth at 10 µM: 47%
SN12C
  inhibition of growth at 10 µM: 18%
[8]
  inhibition of growth at 10 µM: 12%
[21]
  inhibition of growth at 10 µM: 28%
[9]
  inhibition of growth at 10 µM: 22%
[11]
  inhibition of growth at 10 µM: 51%
[12]
  inhibition of growth at 10 µM: 30%
[13]
  inhibition of growth at 10 µM: 34%
MDA-MB-231
  inhibition of growth at 10 µM: 42%
T47D
  inhibition of growth at 10 µM: 27%
ACHN
  inhibition of growth at 10 µM: 21%
[14]
  inhibition of growth at 10 µM: 59%
MDA-MB-468
  inhibition of growth at 10 µM: 17%
A498
  inhibition of growth at 10 µM: 88%
[22]
  inhibition of growth at 10 µM: 25%
NCI-H226
  inhibition of growth at 10 µM: 18%
[23]
  inhibition of growth at 10 µM: 24%
CCRF-CEM
  inhibition of growth at 10 µM: 24%
[24]
  inhibition of growth at 10 µM: 16%
U-251
  inhibition of growth at 10 µM: 16%
A549
  inhibition of growth at 10 µM: 28%
[15]
  inhibition of growth at 10 µM: 10%
K562
  inhibition of growth at 10 µM: 22%
SK-MEL-5
  inhibition of growth at 10 µM: 20%
